# Patent US20100323989A1, “PHARMACEUTICAL COMBINATIONS USEFUL FOR TREATING HCV” (Gilead Sciences, Inc., priority 2009, published 2010)
# Assays:
# [1] = tested on: 1b Con-1 PI-Luc replicon with NS5B polymerase mutation M414T; assay type: cell-based, HCV genotype 1b; details: ratio of mutant EC50 to wild type EC50, NS5B M414T
# [2] = tested on: HCV genotype 1b replicon cells (Huh-luc); experiment: Combination study in Huh-luc replicon cells analysed with MacSynergy II; assay type: cell-based; details: Compound 1 in combination with Compound 2, MacSynergy II
# Experimental: (§1) HCV genotype 1b replicon cells (Huh-luc) were obtained from Reblikon (Mainz, Germany). The replicon in these cells is designated I389luc-ubi-neo/NS3-3′/ET and encodes a selectable resistance marker (neomycin phosphotransferase) as well as the firefly luciferase reporter gene. Huh-luc cells were maintained in Dulbecco's Modified Eagle's Medium (DMEM; GIBCO, Carlsbad, Calif.) supplemented with 10% fetal bovine serum (FBS; Hyclone, Logan, Utah) and 0.5 mg/mL of G-418 (GIBCO). Cells were passaged twice a week and maintained at subconfluent levels.
# For each individual drug, the EC50 value was selected as the midpoint for the concentration range tested. Cells were incubated for three days and analyzed for luciferase expression as indicated above. For the combination study, two independent experiments were performed in triplicate.
# The calculated volumes of surface deviations are expressed in nM2%. Per Prichard and Shipman, combination effects are defined as:
# Highly synergistic if volumes >100 nM^2.
# Slightly synergistic if volumes are >50 and ≦100 nM^2.
# Additive if volumes are >−50 nM^2 and ≦50 nM^2.
# Slightly antagonistic if volumes are >−100 nM^2 and ≦−50 nM^2.
# Antagonistic if volumes are ≦−100 nM^2.
# [3] = tested on: 1b Con-1 PI-Luc replicon with NS5B polymerase mutation M423T; assay type: cell-based, HCV genotype 1b; details: ratio of mutant EC50 to wild type EC50, NS5B M423T
# [4] = tested on: 1b PI-luc replicon with NS3 protease mutation V36M; assay type: cell-based, HCV genotype 1b; details: ratio of mutant EC50 to wild type EC50, NS3 V36M
# [5] = Pharmacokinetic drug-drug interaction study, single dose with multiple-dose partner, healthy subjects (Example 6); assay type: in vivo, human; details: for Compound 1 AUC0-last, % Geometric Least-Squares Mean Ratio (90% CI) / Compound 1 AUCinf, % Geometric Least-Squares Mean Ratio (90% CI) / Compound 1 Cmax, % Geometric Least-Squares Mean Ratio (90% CI): Compound 1 + Compound 2 / Compound 1 alone; for AUC(0-t) / AUC(0-inf) / Cmax / half-life: human, plasma; for AUC(0-t): Compound 1 AUC0-last; for AUC(0-t) / AUC(0-inf) / Cmax: Mean (% CV); for AUC(0-inf): Compound 1 AUCinf; for Cmax: Compound 1 Cmax; for half-life: Compound 1 T1/2, Median (min, max)
# Experimental: In this study, healthy subjects were randomized into one of the following three treatment groups: […] Treatment Group 3 (N=20): […] Serial blood samples for analysis of plasma concentrations of Compound 2 were collected up to 72 hours post-morning dose on Days 1 and 10 to determine systemic drug exposure.
# [6] = tested on: 1b PI-luc replicon with NS3 protease mutation D168E; assay type: cell-based, HCV genotype 1b; details: ratio of mutant EC50 to wild type EC50, NS3 D168E
# [7] = tested on: HCV genotype 1b replicon cells (Huh-luc); experiment: EC50 determination in HCV genotype 1b Huh-luc replicon cells (luciferase); assay type: cell-based; details: Hepatitis C virus, 72 h, 3 days, average ± standard deviation
# Experimental: as §1
# Replicon cells were seeded in 96-well plates at a density of 5×10^3 cells per well in 100 μL of DMEM culture medium, excluding G-418. Compounds 1 and 2 were serially diluted 1:3 in 100% DMSO (Sigma). These serial dilutions were added to the cells at a 1:200 dilution to achieve a final concentration of 0.5% DMSO in a total volume of 200 μL. […] HCV replication levels in drug-treated samples were expressed as a percentage of those in untreated controls (defined as 100%), and data were fit to the logistic dose response equation y=a/(1+(x/b)c) using XLFit4 software (IDBS, Emeryville, Calif.). EC50 values were calculated from the resulting equations as described previously (Delaney, W. E., et al., Antimicrobial Agents Chemotherapy, 45(6):1705-1713 (2001)).
# [8] = tested on: wild-type 1b Con-1 PI-Luc replicon; experiment: Transient transfection replicon assay, wild type; assay type: cell-based, HCV genotype 1b; details: Hepatitis C virus
# [9] = tested on: 1b PI-luc replicon with NS3 protease mutation R155K; assay type: cell-based, HCV genotype 1b; details: ratio of mutant EC50 to wild type EC50, NS3 R155K
# [10] = tested on: 1b PI-luc replicon with NS3 protease mutation T54A; assay type: cell-based, HCV genotype 1b; details: ratio of mutant EC50 to wild type EC50, NS3 T54A
# [11] = tested on: 1b PI-luc replicon with NS3 protease mutation A156T; assay type: cell-based, HCV genotype 1b; details: ratio of mutant EC50 to wild type EC50, NS3 A156T
# [12] = tested on: 1b Con-1 PI-Luc replicon with NS5B polymerase mutations C316Y/C445F/Y452H; assay type: cell-based, HCV genotype 1b; details: ratio of mutant EC50 to wild type EC50, NS5B C316Y/C445F/Y452H
# [13] = tested on: 1b PI-luc replicon with NS3 protease mutation D168V; assay type: cell-based, HCV genotype 1b; details: ratio of mutant EC50 to wild type EC50, NS3 D168V
# [14] = tested on: 1b Con-1 PI-Luc replicon with NS5B polymerase mutation Y448H; assay type: cell-based, HCV genotype 1b; details: ratio of mutant EC50 to wild type EC50, NS5B Y448H
# [15] = Multiple-dose pharmacokinetic interaction study in healthy subjects (Example 5); assay type: in vivo, human
# [16] = Group 1, Compound 1 20 mg with Compound 2 150 mg BID vs Compound 1 20 mg alone
# [17] = Group 2, Compound 1 40 mg with Compound 2 150 mg BID vs Compound 1 40 mg alone
# [18] = 20 mg, Group 1, human, single-dose Compound 1 20 mg alone
# [19] = 40 mg, Group 2, human, single-dose Compound 1 40 mg alone
# [20] = Group 1, human, single-dose Compound 1 20 mg + multiple-dose Compound 2 150 mg BID
# [21] = Group 2, human, single-dose Compound 1 40 mg + multiple-dose Compound 2 150 mg BID
# [22] = Compound 1 (40 mg BID) + Compound 2 (75 mg BID) / Compound 1 alone
# [23] = coadministration of Compound 2 (75 mg BID) with Compound 1 (40 mg BID) vs Compound 1 alone
smiles,measurement,setting,value
"Fc1ccccc1-c1nc2ccn(Cc3ccc(-c4ccc(C(F)(F)F)cc4C(F)(F)F)nn3)cc-2n1 [Compound 1, 5-({6-[2,4-bis(trifluoromethyl)phenyl]pyridazin-3-yl}methyl)-2-(2-fluorophenyl)-5H-imidazo[4,5-c]pyridine]",Fold Resistance M414T,[1],0.7 fold
same,Interaction,[2],Additive (Additive if volumes are >−50 nM^2 and ≦50 nM^2.)
same,Antagonism Volume,[2]; mean ± SD,0.07 ± 0.07 nM^2
same,Synergy Volume,[2]; mean ± SD,13.5 ± 10.5 nM^2
same,Fold Resistance M423T,[3],0.8 fold
same,Fold Resistance V36M,[4],1.1 fold
same,"Compound 1 AUC0-last, % Geometric Least-Squares Mean Ratio (90% CI)",[5]; Group 1 (Compound 1 20 mg),"250.5 (217.8, 288.0) %"
same,"Compound 1 AUCinf, % Geometric Least-Squares Mean Ratio (90% CI)",[5]; Group 1 (Compound 1 20 mg),"321.1 (262.8, 392.2) %"
same,"Compound 1 Cmax, % Geometric Least-Squares Mean Ratio (90% CI)",[5]; Group 1 (Compound 1 20 mg),"123.1 (111.6, 135.7) %"
same,increase in AUC0-last of Compound 1,[5]; [16],151%
same,increase in AUCinf of Compound 1,[5]; [16],221%
same,increase in Cmax of Compound 1,[5]; [16],23%
same,"Compound 1 AUC0-last, % Geometric Least-Squares Mean Ratio (90% CI)",[5]; Group 2 (Compound 1 40 mg),"253.0 (229.3, 279.1) %"
same,"Compound 1 AUCinf, % Geometric Least-Squares Mean Ratio (90% CI)",[5]; Group 2 (Compound 1 40 mg),"350.4 (300.2, 409.1) %"
same,"Compound 1 Cmax, % Geometric Least-Squares Mean Ratio (90% CI)",[5]; Group 2 (Compound 1 40 mg),"136.8 (122.7, 152.6) %"
same,increase in AUC0-last of Compound 1,[5]; [17],153%
same,increase in AUCinf of Compound 1,[5]; [17],250%
same,increase in Cmax of Compound 1,[5]; [17],37%
same,increase in median Compound 1 terminal phase elimination half-life,"[5]; both groups (20 and 40 mg), with Compound 2 150 mg BID vs Compound 1 alone",approximately 2 fold
same,AUC(0-t),[5]; [18],12800 ng·h/mL
same,AUC(0-inf),[5]; [18],13400 ng·h/mL
same,Cmax,[5]; [18],940 ng/mL
same,half-life,[5]; [18],16.6 h
same,AUC(0-t),[5]; [19],34100 ng·h/mL
same,AUC(0-inf),[5]; [19],35500 ng·h/mL
same,Cmax,[5]; [19],1980 ng/mL
same,half-life,[5]; [19],19.2 h
same,AUC(0-t),[5]; [20],32600 ng·h/mL
same,AUC(0-t),[5]; [21],87500 ng·h/mL
same,AUC(0-inf),[5]; [20],49500 ng·h/mL
same,AUC(0-inf),[5]; [21],137000 ng·h/mL
same,Cmax,[5]; [20],1140 ng/mL
same,Cmax,[5]; [21],2730 ng/mL
same,half-life,[5]; [20],35.8 h
same,half-life,[5]; [21],39.3 h
same,Fold Resistance D168E,[6],1.0 fold
same,EC50,[7],3 ± 2 nM
same,EC50,[8]; Table 3 (NS5B mutation study),1.5 nM
same,EC50,[8]; Table 4 (NS3 protease mutation study),0.79 nM
same,Fold Resistance R155K,[9],0.9 fold
same,Fold Resistance T54A,[10],1.0 fold
same,Fold Resistance A156T,[11],0.6 fold
same,Fold Resistance C316Y/C445F/Y452H,[12],>343 fold
same,Fold Resistance D168V,[13],1.2 fold
same,Fold Resistance Y448H,[14],38.0 fold
same,"Compound 1 AUCtau, % Geometric Least Square Mean Ratio (90% CI)",[15]; [22],"206.4 (185.1, 230.0) %"
same,"Compound 1 Cmax, % Geometric Least Square Mean Ratio (90% CI)",[15]; [22],"185.2 (167.3, 205.0) %"
same,"Compound 1 Ctau, % Geometric Least Square Mean Ratio (90% CI)",[15]; [22],"251.2 (219.5, 287.5) %"
same,increase in AUCtau of Compound 1,[15]; [23],106%
same,increase in Cmax of Compound 1,[15]; [23],85%
same,increase in Ctau of Compound 1,[15]; [23],151%
same,AUC,"[15]; human, plasma, po, 40 mg",43400 ng·h/mL
same,Cmax,"[15]; human, plasma, po, 40 mg",5040 ng/mL
same,concentration at 12 h,"[15]; human, plasma, po, 40 mg",2570 ng/mL
